Laboratory results: patent US8269024B2, “Compounds and methods for modulating communication and virulence in quorum sensing bacteria” (priority 2005, dated 2012)
Like-named read-outs stand apart in the source and are kept apart here. Marks after values point to notes of the source that are not given here.

Experiments:
LasR = target: T1, LasR (Pseudomonas aeruginosa, UniProt P25084); assay: Pseudomonas aeruginosa reporter gene assay, PAO-JP2(plasI-LVAgfp), GFP fluorescence readout; assay type: cell-based; conditions: for antagonism against LasR in P. aeruginosa: antagonism screen in presence of native ligand 8d; for P. aeruginosa Relative fluorescence [%] 12.5 μM / P. aeruginosa Relative fluorescence [%] 400 μM: antagonism, relative to agonism by 8d at 1 μM set to 100%; for P. aeruginosa Relative fluorescence [%] 12.5 μM: compound at 12.5 μM screened against 1 μM 8d; for P. aeruginosa Relative fluorescence [%] 400 μM: compound at 400 μM screened against 1 μM 8d; for activity relative to the three controls (7g, 8f, 9): at 400 μM
T1 construct: Both of these reporter strains lack their native AHL synthases, yet retain active LuxR-type receptors (LasR and TraR proteins, respectively); endogenous in cells; host or cells: P. aeruginosa PAO-JP2(plasI-LVAgfp)
T1 sequence (P25084 whole entry): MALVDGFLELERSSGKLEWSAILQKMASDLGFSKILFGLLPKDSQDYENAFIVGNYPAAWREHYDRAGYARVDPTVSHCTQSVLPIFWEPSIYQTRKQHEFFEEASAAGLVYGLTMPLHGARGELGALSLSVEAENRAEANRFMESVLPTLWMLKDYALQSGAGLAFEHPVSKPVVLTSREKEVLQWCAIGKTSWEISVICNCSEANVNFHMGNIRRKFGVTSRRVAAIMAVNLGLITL
Text: (§1) The AHL library constructed by the schema described above, was screened in two bacterial reporter strains for antagonism of quorum sensing: 1) P. aeruginosa PAO-JP2(plasI-LVAgfp), (De Kievit, T. R.; Gillis, R.; Marx, S.; Brown, C.; Iglewski, B. H. Appl. Environ. Microbiol. 2001, 67, 1865-1873) and 2) A. tumefaciens WCF47 (pCF372). Examination of these two strains was valuable for two reasons: 1) the direct clinical relevance of P. aeruginosa, and 2), the extensive body of biochemical and structural data for TraR in A. tumefaciens. Both of these reporter strains lack their native AHL synthases, yet retain active LuxR-type receptors (LasR and TraR proteins, respectively); exogenous ligand is required for receptor activation, which can be measured by fluorescence (green fluorescent protein (GFP) for LasR) or absorbance (via β-galactosidase activity for TraR) measurements.
An appropriate amount of concentrated stock solution, to give a final concentration of 1 μM, was added to a polypropylene 96-well plate, and the solvent was allowed to evaporate. An overnight culture of P. aeruginosa PAO-JP2(plasI-LVAgfp) was diluted to an OD600 of 0.1 in fresh LB medium containing 200 μg/mL carbenicillin. 200 μL of the diluted culture was added to each well of the plate and incubated at 37° C. for 6 h in a rotary shaking incubator (200 rpm). Cultures were transferred to a polystyrene 96-well plate, GFP expression was measured using a plate reader, and this value was normalized to cell density. Similar methods were used for antagonism assays, illustrated in FIG. […] All assays were performed in triplicate.

TraR [1] = target: T2, TraR (Agrobacterium tumefaciens, UniProt P33905); assay: Agrobacterium tumefaciens reporter gene assay, WCF47(pCF372), β-galactosidase (Miller) readout; assay type: cell-based; conditions: for A. tumefaciens β-galactosidase activity [Miller units] 100 nM: antagonism, compound at 100 nM screened against 100 nM 8b, strain WCF47(pCF372)
T2 construct: Both of these reporter strains lack their native AHL synthases, yet retain active LuxR-type receptors (LasR and TraR proteins, respectively); endogenous in cells; host or cells: A. tumefaciens WCF47(pCF372)
T2 sequence (P33905 whole entry): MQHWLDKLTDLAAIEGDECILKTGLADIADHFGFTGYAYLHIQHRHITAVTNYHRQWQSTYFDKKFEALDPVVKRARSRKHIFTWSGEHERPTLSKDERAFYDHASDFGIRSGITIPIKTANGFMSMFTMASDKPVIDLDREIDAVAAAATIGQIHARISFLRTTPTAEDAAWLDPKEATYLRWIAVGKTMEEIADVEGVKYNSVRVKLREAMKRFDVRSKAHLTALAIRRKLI

[2] = system: P. aeruginosa (PAO1(pLVAgfp)) biofilm formation; assay: Static biofilm assay, scanning laser confocal microscopy; assay type: cell-based, Pseudomonas aeruginosa; conditions: 48 h; for P. aeruginosa biofilm formation: 50 μM ligand, glass slides; for dose dependence of biofilm disruption: 50, 25 and 12.5 μM
Method: Standard static biofilm assays were performed using a P. aeruginosa (PAO1(pLVAgfp)) strain that constitutively produces GFP to facilitate visualization. Biofilms were grown in the absence of ligand (FIG. 34A) and in the presence of 50 μM synthetic ligands 7h (FIG. 34B) or 7o (FIG. 34C), for 48 h and visualized using scanning laser confocal microscopy.
Standard static biofilm assays were performed using a P. aeruginosa PAO1(pTdK-GFP). In brief, an overnight culture was diluted to an OD600 of 0.1 in fresh M9 medium containing 200 μg/mL carbenicillin. This diluted culture was added to a tube containing 50 μM antagonist. Biofilms were grown in the absence of ligand, FIG. 35A; in the presence synthetic ligand 7h, FIG. 35B; and in the presence of synthetic ligand 7o, FIG. 35C (both at 50 μM) for 48 h and visualized using scanning laser confocal microscopy. A sterilized glass coverslip was added to each tube, and the culture was incubated at 37° C. for 48 h without shaking. Coverslips were removed, washed with phosphate buffered saline, and examined using scanning laser confocal microscopy methods. Top-down Z series were collected over a distance of ca. 100 μm. Images in FIGS. 35-37 are representative of several experiments performed on separate days.

TraR [3] = target: T2, TraR; assay: Agrobacterium tumefaciens reporter gene assay, WCF47(pCF372), β-galactosidase (Miller) readout; assay type: cell-based; conditions: for activity against TraR in A. tumefaciens: antagonism screen in presence of native ligand 8b; for A. tumefaciens β-galactosidase activity [Miller units] 10^4 nM: antagonism, compound at 10^4 nM screened against 100 nM 8b, strain WCF47(pCF372); for activity relative to previously reported antagonists 7g, 8f and 9: controls at 10 μM
Text: as §1
An appropriate amount of concentrated AHL stock solution, to give a final concentration of 100 nM, was added to an empty culture tube, and the solvent was allowed to evaporate. An overnight culture of A. tumefaciens WCF47(pCF372) was diluted to an OD600 (optical density) of 0.1 in fresh AB minimal medium containing 400 μg/mL octopine and 50 μg/mL streptomycin. A 1 mL portion of the diluted culture was added to the tubes containing AHLs. Tubes were grown at 28° C. for 12-16 h in a rotary shaking incubator (200 rpm).
The cultures were then assayed for β-galactosidase activity following the Miller assay method. Briefly, 100 μL aliquots of bacteria from each of the tubes were added to wells of a polystyrene 96-well plate and the OD600 of each well was recorded. Next, […] aliquots from each well were transferred to a solvent resistant 96-well plate containing 200 μL Z buffer, 8 μL CHCl3 and 4 μL, 0.1% aq. sodium dodecylsulfate (SDS). This suspension was mixed via repetitive pipetting, after which the CHCl3 was allowed to settle. A 100 μL aliquot from each well was transferred to a fresh polystyrene 96-well plate, and 20 μL of substrate, o-nitrophenyl-β-D-galactopyranoside (ONPG, […] in phosphate buffer), was added at time zero. After the development of appropriate yellow color (ca. 15-35 minutes), the reaction was terminated by the addition of 50 μL of 1 M Na2CO3. Absorbance at 420 nm and 550 nm was measured for each well using a plate reader, and Miller units were calculated according to standard methods.
Similar methods were used for antagonism assays, except the concentration of AHL analog used was 10^4 nM, and OOHL (8b) stock solution was added to each tube such that its concentration was 100 nM (FIG. 30). […] All assays were performed in triplicate.

SMILES | P. aeruginosa Relative fluorescence [%], control relative agonism activity (LasR; Control: relative agonism activity at 1 μM 8d (not at 12.5 μM)) | IC50 (LasR) | antagonism against LasR in P. aeruginosa (LasR) | P. aeruginosa Relative fluorescence [%] 12.5 μM (LasR) | P. aeruginosa Relative fluorescence [%] 400 μM (LasR) | activity relative to the three controls (7g, 8f, 9) (LasR) | inhibition (LasR antagonism) (LasR; at a 12.5:1 ratio with native ligand 8d) | A. tumefaciens β-galactosidase activity [Miller units] 100 nM (TraR [1]) | P. aeruginosa biofilm formation [2] | dose dependence of biofilm disruption [2] | IC50 (TraR [3]) | activity against TraR in A. tumefaciens (TraR [3]) | A. tumefaciens β-galactosidase activity [Miller units] 10^4 nM (TraR [3]) | activity relative to previously reported antagonists 7g, 8f and 9 (TraR [3]) | IC50 (LasR; screened against 1 μM 8d, sigmoidal dose-response curve fit, read-out: P. aeruginosa IC50) | inhibition at 0.1 µM (TraR [1]; read-out: inhibition (TraR antagonism)) | IC50 (TraR [3]; screened against 100 nM 8b, sigmoidal dose-response curve fit, read-out: A. tumefaciens IC50) | A. tumefaciens β-galactosidase activity [Miller units], control agonism activity (TraR [3]; Control: agonism activity at 100 nM 8b alone)
CCCCCCCCCC(=O)CC(=O)N[C@@H]1CCOC1=O [Compound 8d, N-(3-oxo-dodecanoyl)-L-homoserine lactone, reference compound] | 100 ± 8^h % |  |  |  |  |  |  |  |  |  |  |  |  |  |  |  |  | 
O=C(CCCc1c[nH]c2ccccc12)N[C@@H]1CCOC1=O [Compound 7h, N-(indole-3-butanoyl)-L-homoserine lactone] |  | 14.8 µM | identified as antagonists | 52 ± 8% | 14 ± 4% | twice as active | 50% | 245 ± 14 Miller units | strongly inhibit | dose-dependent disruption | 1.1 µM | significant activity | 150 ± 14 Miller units | one to two orders of magnitude more active |  |  |  | 
CCCCCCCCCC(=O)CC(=O)Nc1ccccc1O [Compound 9, reference compound] |  | 37.3 µM |  | 63 ± 8% | 23 ± 7% |  |  | 396 ± 27 Miller units |  |  | 4.7 µM |  | 186 ± 15 Miller units |  |  |  |  | 
O=C(CC1C=CCC1)N[C@H]1CCOC1=O (stereo partly drawn) [Compound 7k, N-(2-cyclopentene-1-acetanoyl)-L-homoserine lactone] |  | 33.1 µM | identified as antagonists | 72 ± 8% | 24 ± 7% |  |  | 306 ± 8 Miller units |  |  | 1 µM | significant activity | 19 ± 8 Miller units | one to two orders of magnitude more active |  |  |  | 
O=C(CC(=O)N[C@H]1CCOC1=O)Cc1ccccc1 [Compound 8f, N-(3-oxo-4-phenylbutanoyl)-L-homoserine lactone, reference compound] |  | 53.6 µM |  | 82 ± 18% | 27 ± 9% |  |  | 310 ± 6 Miller units |  |  | 0.59 µM |  | 51 ± 22 Miller units |  |  |  |  | 
O=C(Cc1ccc(Br)cc1)N[C@H]1CCOC1=O [Compound 7o, N-(4-bromophenylacetanoyl)-L-homoserine lactone] |  |  | identified as antagonists | 58 ± 21% | 14 ± 5% | twice as active |  | 193 ± 9 Miller units | strongly inhibit | dose-dependent disruption |  | significant activity | 0 ± 4 Miller units | one to two orders of magnitude more active | 16.1 µM | 50% | 0.25 µM | 
CCCCCCC(=O)N[C@H]1CCOC1=O [Compound 7g, N-heptanoyl-L-homoserine lactone, reference compound] |  | 51.5 µM |  | 78 ± 9% | 29 ± 9% |  |  | 226 ± 30 Miller units |  |  | 0.13 µM |  | 34 ± 6 Miller units |  |  |  |  | 
CCCCCC(=O)CC(=O)N[C@@H]1CCOC1=O [Compound 8b, N-(3-oxo-octanoyl)-L-homoserine lactone, reference compound] |  |  |  |  |  |  |  |  |  |  |  |  |  |  |  |  |  | 385 ± 35^g Miller units
